In US4661513A, “3-aminopropoxyphenyl derivatives, their preparation and pharmaceutical compositions containing them” (Louis; William John, priority 1982, dated 1987):

Legend:
[1] = tested on: tracheal preparations (guinea pig trachea); test: in vitro tracheal preparations of the guinea pig, relaxation under isoproterenol
[2] = tested on: β-adrenoceptor (guinea pig atrium); test: spontaneously beating guinea pig atrium test: inhibition of the positive chronotropic isoprenaline effect; settings: β-adrenoceptor blocking activity, vs isoprenaline
[3] = at concentrations as high as 1×10^-4 M

Row | SMILES | effect in the trachea ([1]; at concentrations as high as 2×10^-5 M) | Guinea pig atrium test Effective dose (molar concentration) [2] | effect in the trachea [1, 3]
1 | COCCc1ccc(OCC(O)CNCCNC(=O)C2CCCOC2)cc1 (centres unmarked) [Example 1, 1-[4-(2-Methoxyethyl)phenoxy]-3-[2-(tetrahydropyran-3-ylcarbonylamino)ethylamino]-2-propanol] | no effect |  | 
2 | COCCc1ccc(OCC(O)CNCCNC(=O)C2CCOCC2)cc1 (centres unmarked) [Example 3] |  | 200 nM | 
3 | COCCOc1ccc(OCC(O)CNCCNC(=O)C2CCOCC2)cc1 (centres unmarked) [Example 6] |  | 400 nM | no effect
4 | COCCc1ccc(OCC(O)CNCCNC(=O)C2CCOCC2)c(C#N)c1 (centres unmarked) [Example 7] |  | 80 nM | 
5 | COCCc1ccc(OCC(O)CNCCNC(=O)C2CCCOC2)c(Br)c1 (centres unmarked) [Example 8] |  | 80 nM | 
6 | COCCc1ccc(OCC(O)CNCCNC(=O)C2CCCOC2)c(C#N)c1 (centres unmarked) [Example 9] |  | 300 nM | 
7 | O=C(NCCNCC(O)COc1ccc(OCCOCC2CC2)cc1)C1CCCOC1 (centres unmarked) [Example 10] |  |  | no effect
8 | O=C(NCCNCC(O)COc1ccc(OCCOCC2CC2)cc1)C1CCOCC1 (centres unmarked) [Example 11] |  | 200 nM | no effect
9 | O=C(NCCCNCC(O)COc1ccc(OCCOCC2CC2)cc1)C1CCOCC1 (centres unmarked) [Example 12] |  | 3000 nM | 
